This note sets out measurements from US20100168054A1, “Functionalized Beta 1,6 Glucosamine Disaccharides and Process for Their Preparation” (OM PHARMA, priority 2006, published 2010).

For experiment [1], the system named is human peripheral blood mononuclear cells (PBMC). Briefly: TNF-α secretion by human PBMC (ELISA). The experiment is classed as cell-based. The following applies: 24 h. Here is the method:
Peripheral blood from healthy donors (Centre de transfusion, Hôpital Universitaire, Geneva) was centrifuged to get the buffy coat. The buffy coat was mixed with Hanks' balanced saline solution (HBSS, Sigma, Buchs, Switzerland), layered over Ficoll Paque Plus (Amersham Pharmacia) to 1.077 g/mL and centrifuged (2800 rpm, 20° C., 25 min). Cells harvested from the interphase were washed twice in HBSS at 800 rpm for 15 min at room temperature and the pelleted cells were resuspended in HBSS. The cell counts were performed using a Neubauer cell. All cell cultures were performed in RPMI-1640 medium supplemented with penicillin (100 U/mL), streptomycin (100 μg/mL), L-glutamine (2 mmol/L) and 10% fetal calf serum (FCS), all obtained from Sigma. For in vitro stimulation, the cells were cultured at a concentration of 1×10^6 viable cells/well.
PBMC were incubated at 37° C. and under 5% CO2 atmosphere with the controls (see below) and with the products of the invention at 1, 5, and 20 μg/mL for IL-6, and at 0.2, 2, and 20 μg/mL for TNF-α secretion. Medium: RPMI alone.
The surpernatants of the cultures were harvested after 24 h and the concentration of IL-6 and TNF-α were measured by an enzyme-linked immunosorbent assay (ELISA) (Human IL-6 and TNF-α ELISA Set, BD OptEIA, San Diego, USA), according to the manufacturer instructions. The detection limits were 10 and 8 pg/mL respectively.

The next experiment deals with rat mast cells. Briefly: Histamine secretion (compound 48/80-stimulated). The experiment is classed as cell-based. The following applies: compound 48/80 0.1 μg/ml, 2 min, 37° C.; read-out: IC50. An excerpt: Using an in vitro rat model of mast cell degranulation (proposed by the CRO CEREP, catalog number 2006: 771-c), we aimed to investigate whether the synthetic molecules OM-174-DP (compound 1b) OM-174-MP-PD (19), OM-174-MP-EP (33), OM-174-MP-CM (35c) and OM-174-MP-PR (17) would inhibit histamine secretion by compound 48/80-stimulated mastocytes. The protocol used is briefly summarized below:
The results are expressed as a percent of control specific activity ((measured specific activity/control specific activity)×100) obtained in the presence of the test compounds. The IC50 values (concentration causing a half-maximal inhibition of control specific activity) were determined by non-linear regression analysis of the inhibition curves generated with mean replicate values using Hill equation curve fitting (Y=D+[(A−D)/(1+(C/C50)nH)], where Y=specific activity, D=minimum specific activity, A=maximum specific activity, C=compound concentration, C50=IC50, and nH=slope factor). This analysis was performed using a software developed at Cerep (Hill software) and validated by comparison with data generated by the commercial software SigmaPlot® 4.0 for Windows® (© 1997 by SPSS Inc.).
In each experiment, the reference compound was tested concurrently with the test compounds in order to assess the assay suitability. It was tested at several concentrations (for IC50 value determination), and the data were compared with historical values determined at CEREP. The assay was rendered valid if the suitability criteria were met, in accordance with the corresponding Standard Operating Procedure.

The structures appear in SMILES notation.

For orientation: IC50 means the midpoint of a concentration-inhibition curve. `CCCCCCCCCCCC(=O)O[C@H](CCCCCCCCCCC)CC(=O)N[C@H]1[C@H](OC[C@H]2O[C@H](OCC(=O)O)[C@H](NC(=O)C[C@H](O)CCCCCCCCCCC)[C@@H](O)[C@@H]2O)O[C@H](CO)[C@@H](OP(=O)(O)O)[C@@H]1O` [compound 35c, 2-Carboxymethyl-2-Deoxy-6-O-[2-deoxy-4-O-(dihydroxyphosphoryl)-2-[(R)-3-dodecanoyloxytetradecanoylamino]-β-D-glucopyranosyl]-2-[(R)-3-hydroxytetradecanoylamino]-α-D-glucopyranoside]: the TNF-α in experiment [1] (0.2 μg/ml) was 48 pg/mL; in experiment [1] (2 μg/ml) it was 502 pg/mL; in experiment [1] (20 μg/ml), 591 pg/mL. In addition, the IC50 with rat mast cells was 320 nM.
